Test: Modified Recombinant Enzyme Assay: Glutaminase reaction buffer was prepared [50 mM Tris-HCl pH 8.8, 150 mM K2HPO4, […] EDTA, 0.1 mg/ml BSA (Calbiochem no. 2960), 1 mM DTT, 2 mM NADP+(Sigma Aldrich no. N5755), and 0.01% TX-100] and used to make 3×-enzyme-containing solution, 3×-substrate-containing solution, and 3×-inhibitor-containing solution (see below) Inhibitor-containing solution was made

Row | SMILES | IC50 [nM]
1 | O=C(Cc1ccccn1)Nc1nnc(CCCCc2ccc(NC(=O)C(O)c3ccccc3)nn2)s1 (stereo not drawn) | 190
2 | Cc1cccc(CC(=O)Nc2nnc(CCCCc3ccc(NC(=O)Cc4cccc(OC(F)(F)F)c4)nn3)s2)n1 | 12
3 | Nc1cccc(CC(=O)Nc2nnc(CCCCc3ccc(NC(=O)Cc4cccc(OC(F)(F)F)c4)nn3)s2)n1 | 50
4 | O=C(Cc1ccc(O)c(OC(F)(F)F)c1)Nc1ccc(CCCCc2nnc(NC(=O)Cc3ccccn3)s2)nn1 | 42
5 | CC(C)(C)OC(=O)Nc1cccc(CC(=O)Nc2nnc(CCCCc3ccc(NC(=O)Cc4cccc(OC(F)(F)F)c4)nn3)s2)n1 | 140
6 | O=C(Cc1ccc(F)c(OC(F)(F)F)c1)Nc1ccc(CCCCc2nnc(NC(=O)Cc3ccccn3)s2)nn1 | 33
7 | O=C(Cc1cc(OC(F)(F)F)ccc1F)Nc1ccc(CCCCc2nnc(NC(=O)Cc3ccccn3)s2)nn1 | 20
8 | O=C(Cc1cc(O)cc(OC(F)(F)F)c1)Nc1ccc(CCCCc2nnc(NC(=O)Cc3ccccn3)s2)nn1 | 13
9 | COc1cc(CC(=O)Nc2ccc(CCCCc3nnc(NC(=O)Cc4ccccn4)s3)nn2)cc(OC(F)(F)F)c1 | 16
10 | COc1ccc(CC(=O)Nc2ccc(CCCCc3nnc(NC(=O)Cc4ccccn4)s3)nn2)cc1OC(F)(F)F | 24
11 | O=C(Cc1cc(OC(F)(F)F)ccc1O)Nc1ccc(CCCCc2nnc(NC(=O)Cc3ccccn3)s2)nn1 | 26
12 | COc1ccc(OC(F)(F)F)cc1CC(=O)Nc1ccc(CCCCc2nnc(NC(=O)Cc3ccccn3)s2)nn1 | 34
13 | O=C(Cc1ccc(Cl)c(OC(F)(F)F)c1)Nc1ccc(CCCCc2nnc(NC(=O)Cc3ccccn3)s2)nn1 | 16

— ChEMBL document CHEMBL5727994, “Heterocyclic glutaminase inhibitors” (2020)
